Measured values from article PMC12808100, “The non-catalytic DNA polymerase ε subunit is an NPF motif recognition protein” (Nature Communications, 2025).

Assays:
[1] = target: His6-avi-MBP-tagged POLE2; assay: Single-point nHU-MS with recombinant His6-avi-MBP-POLE2 bait, Jurkat extract; type: binding, human; conditions: for BI / log2FC / pKapp: bait av-His6-MBP-tagged full-length POLE2
Source text: So far, our study only focused on a few hand-picked NPF motifs and studied them as short synthetic peptides. However, many other proteins may be present in the proteome that could bind to POLE2 and their putative NPF motifs are embedded in their natural structures that can greatly affect their binding properties. To investigate interactions between POLE2 and intact, full length proteins proteome-wide, we used nHU-MS experiments with recombinant His6-avi-MBP-tagged POLE2 as bait and purified His6-avi-MBP as a control. Even though we are aware that this recombinant POLE2 may bind to NPF motifs with a somewhat altered affinity, we assumed that this would affect all NPF motif-mediated interactions equally, allowing an unbiased affinity ranking of all identified partners. Single point nHU measurements were performed at 26 μM POLE2 concentration and the recovered supernatant was measured by label free proteomic MS measurements (Fig. 3A, Supplementary Figs. 8A, 9, Supplementary Data 1).
Single-point nHU experiments with protein baits were carried out nearly identically with two key modifications. First, the resin saturation step was carried out by mixing 50 μl streptavidin resin with 0.5−1 ml 50 μM biotinylated protein solution and the mixture was incubated for 1.5 h at 4 °C with constant agitation. Second, instead of using estimated bait concentrations, we measured it experimentally. An extra aliquot of resin stock was prepared alongside the nHU samples that were identically processed that were used to eluate the immobilized proteins under harsh conditions, in order to experimentally quantify the Cbait by using densitometry of Coomassie stained SDS-PAGE that included a protein calibration series. For this, 50 μl bait-saturated resin aliquots were mixed with 200 μl 4x Laemmli Sample Buffer (120 mM Tris-HCl pH 7, 8% SDS, 100 mM DTT, 32% glycerol, 0.004% bromphenol blue, 1% β-mercaptoethanol), instead of cell extract. After 15 min incubation at 95 °C, these samples were analyzed by SDS-PAGE using protein calibration standard, made from recombinant MBP. Densitometry was carried out after Coomassie staining on raw Tif images by using Fiji ImageJ 1.53c and experimental bait concentration were determined by adjusting for molecular weight differences between MBP and MBP-POLE2 constructs.
Samples were digested overnight at 37 °C.

[2] = test system: POLE; assay: Titration nHU, Western blot, endogenous POLE in Jurkat extract; type: binding, human; conditions: titration nHU with peptide bait, Western blot
Source text: To identify the partners of NPF motifs, we used the native holdup (nHU) assay that was recently developed by our team (Fig. 1B). The holdup approach has been extensively used to determine equilibrium dissociation constants of transient interactions mediated by PDZ and SH3 domains, 14-3-3, and human papilloma virus E6 proteins, and even nucleic acid-protein interactions[7],[30]–[35]. In the nHU experiments, a purified bait molecule, or a control compound, is immobilized on a resin at high concentration (typically 10 μM, or higher) and these resin stocks are subsequently mixed with dilute cell extracts. After a relatively long incubation, i.e., 2 h at 4 °C, the liquid phase is separated by centrifugation. This liquid phase contains the unbound prey molecules at near binding equilibrium that can be quantified using selective and quantitative analytical approaches, such as mass spectrometry. Therefore, proteins that interact with the bait molecule will appear to be depleted in the solvent phase and by measuring its relative concentration compared to the control nHU experiment, the degree of binding (θ) can be determined that can be converted to apparent steady-state dissociation constants, according to:1 θ=1−Ifree/Itot=Cbait/Cbait+Kapp where Itot and Ifree are the measured total and bait-depleted equilibrium mass spectrometry total ion intensities of prey proteins, Cbait is the bait molecule concentration and Kapp is the apparent dissociation constant.
Jurkat E6.1 cells (ECACC #88042803, RRID: CVCL_0367) were grown in RPMI (Gibco) medium completed with 10% FBS (Gibco BRL) and 40 μg/ml gentamicin (Gibco/Life Technology). To prepare total cell extracts, Jurkat cells were seeded onto T-175 flasks and grew until 3 × 10^6 cells/ml confluency. Cells were collected by 1000 g x 5 min centrifugation, washed with PBS and then lysed in ice-cold lysis buffer (Hepes-KOH pH 7.5 50 mM, NaCl 150 mM, Triton X-100 1%, cOmplete EDTA-free protease inhibitor cocktail 5x, TCEP 5 mM, glycerol 10%).
Cell suspensions were sonicated 4×20 sec with 1 sec long pulse on ice, then incubated rotating at 4 °C for 30 min. The lysates were centrifuged at 12,000 rpm 4 °C for 20 min and supernatant was kept. Total protein concentration was measured by standard Bradford method (Bio-Rad Protein Assay Dye Reagent #5000006) using a BSA calibration curve (MP Biomedicals #160069, diluted in lysis buffer) on a Bio-Rad SmartSpec 3000 spectrophotometer instrument.
Titration holdup experiments were carried out as described above using 25 μl saturated resins prepared. Briefly, we mixed control, or bait-saturated resins at various proportions by keeping the total resin amount and resin-analyte ratio constant during the experiment (for 25 μl we used 100 μl cell extract as analyte). In titration experiments with protein baits, bait concentration was determined as described above for the saturated resin stocks. Experiments were carried out at 4 °C for 2 h and recovered supernatants were subjected to western blot or dot blot analysis.
For Western blot, samples were mixed with 4x Laemmli Sample Buffer in 3:1 ratio. Equal amounts of samples were loaded on 6-10% acrylamide-gels (generally 16 μg). Transfer was done into PVDF membranes using a Trans-Blot Turbo Transfer System and Trans-Blot Turbo RTA Transfer Kit (BioRad, #1704275). For Dot blot, nHU samples were directly loaded on Nitrocellulose membranes using 48 Sample vacuum manifold (Cleaver Scientific) following the manufacturer’s recommendations.
After 1 h of blocking in 5% milk, membranes were incubated overnight at 4 °C with primary antibodies in 5% milk-TBS-Tween.

[3] = significant apparent affinity of endogenous prey protein for POLE2 bait, single-point nHU-MS, Figure S11
[4] = non-zero for significant partners, MS6_Varjosalo

Substance: AGL
- pKapp_sign [1, 3]: 4.38

Substance: ARLRH [AKNA]
- pKapp_sign [1, 3]: 4.257

Substance: ASVD [CPSF4]
- pKapp_sign [1, 3]: 4.068

Substance: CRIPT
- pKapp_sign [1, 3]: 4.909

Substance: DEGFK [ACACA, endogenous full length prey protein]
- BI ([1]; MS6_Varjosalo): 0.2013
- log2FC ([1]; MS6_Varjosalo): -0.3242
- pKapp ([1]; MS6_Varjosalo): 3.986
- pKapp_sign [1, 4]: 3.986
- pKapp_sign [1, 3]: 3.986

Substance: KDDY [DNAJC10]
- pKapp_sign [1, 3]: 4.21

Substance: KPKKPLTSSS [MAPRE1]
- pKapp_sign [1, 3]: 4.964

Substance: KPTSTYSLSS [VIPAS39]
- pKapp_sign [1, 3]: 4.13

Substance: LSVD [LEF1]
- pKapp_sign [1, 3]: 4.471

Substance: MIOS
- pKapp_sign [1, 3]: 4.5333

Substance: NPFA [WDR59, endogenous full length prey protein]
- pKapp_sign [1, 3]: 4.457

Substance: NPFI [DNAJA3, endogenous full length prey protein]
- pKapp_sign [1, 3]: 4.13

Substance: NPFK [CCDC134, endogenous full length prey protein]
- pKapp_sign [1, 3]: 4.219

Substance: NPFQ [MAPK1IP1L, endogenous full length prey protein]
- pKapp_sign [1, 3]: 4.047

Substance: NPFQ [SSBP2, endogenous full length prey protein]
- pKapp_sign [1, 3]: 4.583

Substance: NPFT [NOSIP, endogenous full length prey protein]
- pKapp_sign [1, 3]: 4.058

Substance: NSVD [PLEKHA5, endogenous full length prey protein]
- pKapp_sign [1, 3]: 4.548

Substance: PAAST [NUP58]
- pKapp_sign [1, 3]: 4.1

Substance: PPSSKVSSHS [CNTRL]
- pKapp_sign [1, 3]: 4.363

Substance: PSASG [NUP214, endogenous full length prey protein]
- BI ([1]; MS6_Varjosalo): 0.2012
- log2FC ([1]; MS6_Varjosalo): -0.3242
- pKapp ([1]; MS6_Varjosalo): 3.986
- pKapp_sign [1, 4]: 3.986
- pKapp_sign [1, 3]: 3.986

Substance: PSASM [RFWD3]
- pKapp_sign [1, 3]: 4.618

Substance: PSASR [NUP188]
- pKapp_sign [1, 3]: 4.034

Substance: PSASS [ERCC6L, endogenous full length prey protein]
- pKapp_sign [1, 3]: 4.421

Substance: PSASS [TTF2, endogenous full length prey protein]
- pKapp_sign [1, 3]: 4.771

Substance: PSAST [EPN2, endogenous full length prey protein]
- pKapp_sign [1, 3]: 4.531

Substance: PSPST [EXO1]
- pKapp_sign [1, 3]: 4.499

Substance: PSSST [GIGYF2]
- pKapp_sign [1, 3]: 4.1436

Substance: PSTST [UBR5, endogenous full length prey protein]
- BI ([1]; MS6_Varjosalo): 0.2095
- log2FC ([1]; MS6_Varjosalo): -0.3392
- pKapp ([1]; MS6_Varjosalo): 4.008
- pKapp_sign [1, 4]: 4.008
- pKapp_sign [1, 3]: 4.008

Substance: PSVST [ZMYM1]
- pKapp_sign [1, 3]: 4.45

Substance: PVGGND [USP9X, endogenous full length prey protein]
- pKapp_sign [1, 3]: 4.835

Substance: PVLGNI [SSBP3]
- pKapp_sign [1, 3]: 4.288

Substance: PYCR1: endogenous full length prey protein
- log2FC ([1]; MS6_Varjosalo): -0.3412
- pKapp_sign [1, 3]: 4.011

Substance: QDLGNI [CTSA]
- pKapp_sign [1, 3]: 4.815

Substance: QPLRH [OIP5]
- pKapp_sign [1, 3]: 4.225

Substance: RARA [INKA1]
- pKapp_sign [1, 3]: 5.687

Substance: RHRA [FIP1L1]
- pKapp_sign [1, 3]: 4.277

Substance: RRIVSDGEDEDDSFKDTSSINPFNTSLFQFSSVKQFDAS [ERCC6L 1024-1062, biotinylated NPF motif peptide of ERCC6L]
- binding to endogenous POLE ([2]; listed as NPF motif of ERCC6L): No apparent binding

Substance: RSRSVS [ZNRF1]
- pKapp_sign [1, 3]: 4.487

Substance: RSVD [PLEKHA7]
- pKapp_sign [1, 3]: 4.312

Substance: SLGEI [GYG1]
- pKapp_sign [1, 3]: 4.703

Substance: SLRED [INPP5K]
- pKapp_sign [1, 3]: 4.539

Substance: SRPMVIQESKSLLRNPFEAIRPGS [CLSPN 1223-1246, biotinylated NPF motif peptide of Claspin]
- binding to endogenous POLE ([2]; listed as CLSPN): unable to bind to endogenous POLE
- binding to endogenous POLE ([2]; listed as Claspin): could not interact with POLE

Substance: SSNSQ [PNPT1]
- pKapp_sign [1, 3]: 4.014

Substance: SSQSY [EIF4E2]
- pKapp_sign [1, 3]: 4.429

Substance: TNSTSD [PIKFYVE]
- pKapp_sign [1, 3]: 4.132

Substance: TRIM25
- pKapp_sign [1, 3]: 4.096

Substance: TRIM27
- pKapp_sign [1, 3]: 4.707

Substance: TSPTSD [NUMB, endogenous full length prey protein]
- pKapp_sign [1, 3]: 4.316

Substance: TTAATSV [SEC23IP]
- pKapp_sign [1, 3]: 4.243
